The record followed here is ChEMBL document CHEMBL5696441 (Nat Chem Biol, 2011).

For this experiment, the system named is THP-1. Description: Inhibition of ERK in human THP-1 cells assessed as CREB phosphorylation at Ser133 level at 4 uM preincubated for 30 mins in the presence of PMA stimulation for 1 hrs by western blot analysis. The class given is cell-based.

Calls of active or inactive are those of the source. The calls are words filed in the database; no cut-off is given here.

For `C[S+]([O-])c1ccc(-c2nc(-c3ccc(F)cc3)c(-c3ccncc3)[nH]2)cc1` (stereo unspecified), the inhibition result is “Active”.
